Among the data in ChEMBL document CHEMBL1149268, “Structure-based design of potent and selective cell-permeable inhibitors of human beta-secretase (BACE-1)” (J Med Chem, 2004) are IC50 and Activity values, retold here.

One assay has as its target T1, Renin (Homo sapiens, UniProt P00797).
T1 sequence (P00797 whole entry): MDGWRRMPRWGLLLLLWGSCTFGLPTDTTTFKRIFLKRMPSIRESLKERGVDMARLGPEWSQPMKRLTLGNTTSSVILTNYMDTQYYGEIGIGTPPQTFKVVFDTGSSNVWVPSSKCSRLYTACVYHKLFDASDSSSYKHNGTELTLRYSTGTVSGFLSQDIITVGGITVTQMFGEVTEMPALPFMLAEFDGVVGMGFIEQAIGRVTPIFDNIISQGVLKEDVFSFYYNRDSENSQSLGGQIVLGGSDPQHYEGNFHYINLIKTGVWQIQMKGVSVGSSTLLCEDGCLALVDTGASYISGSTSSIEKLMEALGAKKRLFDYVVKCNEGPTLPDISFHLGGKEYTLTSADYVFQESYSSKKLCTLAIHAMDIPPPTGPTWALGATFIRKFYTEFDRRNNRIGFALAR
Nature of the assay: Inhibition of renin.

Assay [1] concerns the target T2, Beta-secretase 1 (Homo sapiens, UniProt P56817).
Assay [2] addresses T2, Beta-secretase 1. The source holds these as a separate data set.
The next assay addresses T3, Beta-secretase 2 (Homo sapiens, UniProt Q9Y5Z0).
T3 sequence (Q9Y5Z0 whole entry): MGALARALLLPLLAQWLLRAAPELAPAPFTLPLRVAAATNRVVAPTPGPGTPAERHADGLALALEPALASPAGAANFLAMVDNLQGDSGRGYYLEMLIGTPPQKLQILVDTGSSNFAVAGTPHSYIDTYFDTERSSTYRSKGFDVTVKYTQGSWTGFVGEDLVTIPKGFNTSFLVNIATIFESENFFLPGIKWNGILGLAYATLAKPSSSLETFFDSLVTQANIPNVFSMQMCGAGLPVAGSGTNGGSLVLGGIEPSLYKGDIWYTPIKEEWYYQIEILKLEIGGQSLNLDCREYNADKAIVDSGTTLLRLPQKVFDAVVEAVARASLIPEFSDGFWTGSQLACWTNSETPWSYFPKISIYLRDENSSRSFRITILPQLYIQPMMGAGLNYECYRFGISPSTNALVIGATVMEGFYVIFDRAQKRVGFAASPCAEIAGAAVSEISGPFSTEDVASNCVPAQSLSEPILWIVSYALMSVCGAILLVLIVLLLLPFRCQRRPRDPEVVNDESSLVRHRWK
Nature of the assay: (§1) Inhibition of BACE2.

The target of assay [3] is T4, Beta-secretase 2 (Homo sapiens) (UniProt Q9Y5Z0).
T4 sequence (whole entry): T3 sequence (Q9Y5Z0 whole entry)
The description is as §1.

For orientation: IC50 means the concentration that inhibits the measured activity by half. The low end stands for greater potency in that assay, the high end for weaker potency in that assay.

Molecules are shown by their SMILES. The source made the active and inactive calls. The calls are words filed in the database; no cut-off is given here.

T2 sequence (P56817 whole entry): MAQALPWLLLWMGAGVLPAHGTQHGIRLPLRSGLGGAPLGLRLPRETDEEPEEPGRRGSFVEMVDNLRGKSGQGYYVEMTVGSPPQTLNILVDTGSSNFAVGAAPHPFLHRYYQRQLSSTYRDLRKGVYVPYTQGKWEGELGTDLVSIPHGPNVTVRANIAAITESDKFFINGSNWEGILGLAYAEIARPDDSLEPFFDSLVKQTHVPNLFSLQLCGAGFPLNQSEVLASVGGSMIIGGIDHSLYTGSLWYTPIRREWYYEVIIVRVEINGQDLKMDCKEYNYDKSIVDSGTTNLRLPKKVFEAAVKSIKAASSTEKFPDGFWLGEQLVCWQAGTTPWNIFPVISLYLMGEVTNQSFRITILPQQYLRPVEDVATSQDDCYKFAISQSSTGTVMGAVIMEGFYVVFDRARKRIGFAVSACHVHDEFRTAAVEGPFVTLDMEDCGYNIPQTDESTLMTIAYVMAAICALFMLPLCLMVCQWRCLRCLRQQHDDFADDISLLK

For the compound `C[C@@H](NC(=O)c1cc(C(=O)N[C@@H](Cc2ccccc2)C(O)CNC2CC2)cc(N(C)S(C)(=O)=O)c1)c1ccccc1` (some centres undefined), at Renin, the IC50 was above 50000 nM.
For `CCNC[C@@H](O)[C@H](Cc1ccccc1)NC(=O)c1cc(C(=O)N[C@H](C)c2ccc(F)cc2)cc(N(C)S(C)(=O)=O)c1`, the IC50 on Renin is above 50000 nM; on Beta-secretase 1 [1] it was 396 nM; against Beta-secretase 1 [2], 15 nM; against Beta-secretase 2, 260 nM.
Take `C[C@@H](NC(=O)c1cc(C(=O)N[C@@H](Cc2ccccc2)[C@H](O)CNC2CC2)cc(N(C)S(C)(=O)=O)c1)c1ccc(F)cc1`: the IC50 is above 10000 nM against Renin, 19 nM at Beta-secretase 1 [1], 10 nM at Beta-secretase 1 [2] and 69 nM at Beta-secretase 2.
The corresponding values for `C[C@@H](NC(=O)c1cc(NS(C)(=O)=O)cc(C(=O)N[C@@H](Cc2ccccc2)C(O)CNC2CC2)c1)c1ccc(F)cc1` (some centres undefined) are above 50000 nM, 1180 nM, 63 nM and 210 nM.
Regarding `C[C@@H](NC(=O)c1cc(C(=O)N[C@@H](Cc2ccccc2)[C@H](O)CNC(C)(C)C)cc(N(C)S(C)(=O)=O)c1)c1ccc(F)cc1`, the IC50 was above 50000 nM at Renin, 2120 nM on Beta-secretase 1 [1] and 15 nM at Beta-secretase 1 [2]. For the same compound, in assay [3], the result was inactive.
As to `C[C@@H](NC(=O)c1cc(C(=O)N[C@@H](Cc2ccccc2)[C@H](O)CN)cc(N(C)S(C)(=O)=O)c1)c1ccc(F)cc1`, the IC50 against Renin was above 50000 nM; against Beta-secretase 1 [1], 5390 nM; at Beta-secretase 1 [2] it was 23 nM; at Beta-secretase 2 it was 443 nM.
Take `C[C@@H](NC(=O)c1cc(C(=O)N[C@@H](Cc2ccccc2)[C@H](O)CNC2CC2)cc(N(C)S(=O)(=O)N(C)C)c1)c1ccccc1`: the IC50 at Renin was above 50000 nM; on Beta-secretase 1 [1], 9 nM; against Beta-secretase 1 [2] it was 14 nM; at Beta-secretase 2 it was 110 nM.
`CC(C)S(=O)(=O)N(C)c1cc(C(=O)N[C@@H](Cc2ccccc2)[C@H](O)CNC2CC2)cc(C(=O)N[C@H](C)c2ccccc2)c1`: the IC50 on Renin is above 50000 nM; at Beta-secretase 1 [1], 25 nM; on Beta-secretase 1 [2] it was 41 nM; against Beta-secretase 2, 360 nM.
